Starred links: 1 amine or outer side, 2 acyl side, 3 side chain; linkers in the order of their positions; H or OH if unused. Non-standard residues stand in square brackets, D forms with d. Residues, ends and D or L forms follow the SMILES beside them. Groups on a side chain read outwards from the residue. *: point of attachment. γGlu = O=C(O)[C@H](CCC(=O)[*:2])N[*:1]; Stearoyl = CCCCCCCCCCCCCCCCCC(=O)*; Palmitoyl = CCCCCCCCCCCCCCCC(=O)*; αMeF = C[C@](N)(Cc1ccccc1)C(=O)O; PEG2 = NCCOCCOCCC(=O)O; Aib = CC(C)(N)C(=O)O
Legend:
[1] = biological target: human GLP-1 receptor (hGLP-1R) (Homo sapiens, UniProt P43220); test: cAMP production (HTRF) in CHO cells expressing hGLP-1R; assay type: cell-based; design: expressed in transfected cells; details: for EC50: Table 6, peptides modified at position 17, cAMP in CHO hGLP-1R cells, geometric mean, read-out: hGLP-1R EC50; for % Relative Potency Ratio: Table 6, % GLP-1R activity relative to GLP-1 / % GlucR activity relative to glucagon
Sequence of human GLP-1 receptor (hGLP-1R) (P43220 24-463): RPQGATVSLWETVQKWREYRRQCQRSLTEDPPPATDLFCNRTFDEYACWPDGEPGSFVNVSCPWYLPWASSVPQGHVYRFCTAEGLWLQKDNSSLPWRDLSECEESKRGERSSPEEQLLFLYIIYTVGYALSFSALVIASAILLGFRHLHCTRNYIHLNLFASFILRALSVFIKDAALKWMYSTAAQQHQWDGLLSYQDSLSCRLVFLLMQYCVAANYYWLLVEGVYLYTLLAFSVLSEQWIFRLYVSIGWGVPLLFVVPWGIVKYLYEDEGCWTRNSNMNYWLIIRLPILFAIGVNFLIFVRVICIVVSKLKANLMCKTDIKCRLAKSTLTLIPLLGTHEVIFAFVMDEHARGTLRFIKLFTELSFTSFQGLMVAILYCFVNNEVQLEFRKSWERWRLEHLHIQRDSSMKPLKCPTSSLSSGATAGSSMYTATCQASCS
In short: (§1)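 Cells were resuspended in assay buffer at batch-optimized density, typically 1×10^5 cells/mL for hGLP-1R and 2×10^5 cells/mL for hGCGR. After 30 min incubation at room temperature with compound, cAMP was measured by two-step HTRF. EC50 values came from 4-parameter logistic fits of % Delta F.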

[2] = biological target: human glucagon receptor (hGCGR) (Homo sapiens, UniProt P47871); test: cAMP production (HTRF) in CHO cells expressing hGCGR; assay type: cell-based; design: expressed in transfected cells; details: Table 6, peptides modified at position 17; cAMP in CHO hGCGR cells; geometric mean; read-out: hGluc-R EC50
Sequence of human glucagon receptor (hGCGR) (P47871 26-477): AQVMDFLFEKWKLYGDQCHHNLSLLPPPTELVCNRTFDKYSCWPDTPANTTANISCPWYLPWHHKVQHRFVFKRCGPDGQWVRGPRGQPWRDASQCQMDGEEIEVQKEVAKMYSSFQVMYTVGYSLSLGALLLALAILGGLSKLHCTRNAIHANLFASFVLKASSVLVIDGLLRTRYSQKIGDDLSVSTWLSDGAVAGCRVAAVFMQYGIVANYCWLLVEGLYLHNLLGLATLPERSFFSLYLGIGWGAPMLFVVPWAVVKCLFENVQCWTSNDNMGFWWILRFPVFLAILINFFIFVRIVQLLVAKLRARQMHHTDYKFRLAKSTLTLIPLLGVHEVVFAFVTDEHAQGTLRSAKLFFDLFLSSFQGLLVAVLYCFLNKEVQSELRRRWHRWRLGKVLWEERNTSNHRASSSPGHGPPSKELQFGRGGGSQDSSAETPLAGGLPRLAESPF
In short: as §1

Row | EC50 [1] [nM] | % Relative Potency Ratio [1] | EC50 [2] [nM] | Structure (SMILES)
1 | 0.0189 | 293.5 | 2.8 | CCCCCCCCCCCCCCCC(=O)N[C@@H](CCC(=O)N[C@@H](CCC(=O)NCCOCCOCCC(=O)NCCOCCOCCC(=O)NCCCC[C@H](NC(=O)[C@H](CO)NC(=O)[C@H](CC(=O)O)NC(=O)[C@H](CC(C)C)NC(=O)[C@](C)(Cc1ccccc1)NC(=O)[C@H](CCCCN)NC(=O)[C@H](CO)NC(=O)[C@@H](NC(=O)[C@H](CC(=O)O)NC(=O)[C@H](CO)NC(=O)[C@@H](NC(=O)[C@](C)(Cc1ccccc1)NC(=O)[C@H](CO)NC(=O)CNC(=O)[C@H](CCC(N)=O)NC(=O)C(C)(C)NC(=O)[C@@H](N)Cc1c[nH]cn1)[C@@H](C)O)C(C)C)C(=O)N[C@@H](C)C(=O)N[C@@H](C)C(=O)N[C@@H](CCC(N)=O)C(=O)N[C@@H](CC(=O)O)C(=O)N[C@H](C(=O)N[C@H](C(=O)N[C@@H](CCC(N)=O)C(=O)N[C@H](C(=O)N[C@H](C(=O)N[C@@H](C)C(=O)N[C@@H](CC(N)=O)C(N)=O)[C@@H](C)CC)[C@@H](C)CC)C(C)C)[C@@H](C)CC)C(=O)O)C(=O)O [Peptide 75] (H-H[Aib]QGS[αMeF]TSDVSK[αMeF]LDSK([PEG2-PEG2-γGlu-γGlu-Palmitoyl])AAQDIVQIIAN-NH2; N-terminus assumed)
2 | 0.00178 | 378.6 | 0.34 | CCCCCCCCCCCCCCCCCC(=O)N[C@@H](CCC(=O)N[C@@H](CCC(=O)NCCOCCOCCC(=O)NCCOCCOCCC(=O)NCCCC[C@H](NC(=O)[C@H](CO)NC(=O)[C@H](CC(=O)O)NC(=O)[C@H](CC(C)C)NC(=O)[C@](C)(Cc1ccccc1)NC(=O)[C@H](CCCCN)NC(=O)[C@H](CO)NC(=O)[C@@H](NC(=O)[C@H](CC(=O)O)NC(=O)[C@H](CO)NC(=O)[C@@H](NC(=O)[C@](C)(Cc1ccccc1)NC(=O)[C@H](CO)NC(=O)CNC(=O)[C@H](CCC(N)=O)NC(=O)C(C)(C)NC(=O)[C@@H](N)Cc1c[nH]cn1)[C@@H](C)O)C(C)C)C(=O)N[C@@H](C)C(=O)N[C@@H](C)C(=O)N[C@@H](CCC(N)=O)C(=O)N[C@@H](CC(=O)O)C(=O)N[C@@](C)(Cc1ccccc1)C(=O)N[C@H](C(=O)N[C@@H](CCC(N)=O)C(=O)NC(C)(C)C(=O)N[C@H](C(=O)N[C@H](C(=O)N[C@@H](CCC(=O)O)C(=O)NCC(=O)NCC(N)=O)C(C)C)C(C)C)C(C)C)C(=O)O)C(=O)O [Peptide 76] (H-H[Aib]QGS[αMeF]TSDVSK[αMeF]LDSK([PEG2-PEG2-γGlu-γGlu-Stearoyl])AAQD[αMeF]VQ[Aib]VVEGG-NH2; N-terminus assumed)
3 | 0.00868 | 55.5 | 0.243 | CCCCCCCCCCCCCCCCCC(=O)N[C@@H](CCC(=O)N[C@@H](CCC(=O)NCCOCCOCCC(=O)NCCOCCOCCC(=O)NCCCC[C@H](NC(=O)[C@H](CO)NC(=O)[C@H](CC(=O)O)NC(=O)[C@H](CC(C)C)NC(=O)[C@](C)(Cc1ccccc1)NC(=O)[C@H](CCCCN)NC(=O)[C@H](CO)NC(=O)[C@@H](NC(=O)[C@H](CC(=O)O)NC(=O)[C@H](CO)NC(=O)[C@@H](NC(=O)[C@](C)(Cc1ccccc1)NC(=O)[C@H](CO)NC(=O)CNC(=O)[C@H](CCC(N)=O)NC(=O)C(C)(C)NC(=O)[C@@H](N)Cc1c[nH]cn1)[C@@H](C)O)C(C)C)C(=O)N[C@@H](C)C(=O)N[C@@H](C)C(=O)N[C@@H](CCC(N)=O)C(=O)N[C@@H](CC(=O)O)C(=O)N[C@@](C)(Cc1ccccc1)C(=O)N[C@H](C(=O)N[C@@H](CCC(N)=O)C(=O)NC(C)(C)C(=O)N[C@@H](CC(C)C)C(=O)N[C@H](C(=O)N[C@@H](CO)C(=O)NCC(N)=O)[C@@H](C)CC)C(C)C)C(=O)O)C(=O)O [Peptide 77] (H-H[Aib]QGS[αMeF]TSDVSK[αMeF]LDSK([PEG2-PEG2-γGlu-γGlu-Stearoyl])AAQD[αMeF]VQ[Aib]LISG-NH2; N-terminus assumed)
4 | 0.00173 | 12.2 | 0.0107 | CCCCCCCCCCCCCCCC(=O)N[C@@H](CCC(=O)N[C@@H](CCC(=O)NCCOCCOCCC(=O)NCCOCCOCCC(=O)NCCCC[C@H](NC(=O)[C@H](CO)NC(=O)[C@H](CC(=O)O)NC(=O)[C@H](CC(C)C)NC(=O)[C@](C)(Cc1ccccc1)NC(=O)[C@H](CCCCN)NC(=O)[C@H](CO)NC(=O)[C@@H](NC(=O)[C@H](CC(=O)O)NC(=O)[C@H](CO)NC(=O)[C@@H](NC(=O)[C@](C)(Cc1ccccc1)NC(=O)[C@H](CO)NC(=O)CNC(=O)[C@H](CCC(N)=O)NC(=O)[C@H](CO)NC(=O)[C@@H](N)Cc1c[nH]cn1)[C@@H](C)O)C(C)C)C(=O)N[C@@H](C)C(=O)N[C@@H](C)C(=O)N[C@@H](CCC(N)=O)C(=O)N[C@@H](CC(=O)O)C(=O)N[C@@](C)(Cc1ccccc1)C(=O)N[C@H](C(=O)N[C@@H](CCC(N)=O)C(=O)NC(C)(C)C(=O)N[C@@H](CC(C)C)C(=O)N[C@@H](CCC(=O)O)C(=O)N[C@@H](C)C(=O)NCC(=O)NCC(N)=O)C(C)C)C(=O)O)C(=O)O [Peptide 79] (H-HSQGS[αMeF]TSDVSK[αMeF]LDSK([PEG2-PEG2-γGlu-γGlu-Palmitoyl])AAQD[αMeF]VQ[Aib]LEAGG-NH2; N-terminus assumed)
5 | 0.00119 | 22.6 | 0.0135 | CCCCCCCCCCCCCCCCCC(=O)N[C@@H](CCC(=O)N[C@@H](CCC(=O)NCCOCCOCCC(=O)NCCOCCOCCC(=O)NCCCC[C@H](NC(=O)[C@H](CO)NC(=O)[C@H](CC(=O)O)NC(=O)[C@H](CC(C)C)NC(=O)[C@](C)(Cc1ccccc1)NC(=O)[C@H](CCCCN)NC(=O)[C@H](CO)NC(=O)[C@@H](NC(=O)[C@H](CC(=O)O)NC(=O)[C@H](CO)NC(=O)[C@@H](NC(=O)[C@](C)(Cc1ccccc1)NC(=O)[C@H](CO)NC(=O)CNC(=O)[C@H](CCC(N)=O)NC(=O)[C@H](CO)NC(=O)[C@@H](N)Cc1c[nH]cn1)[C@@H](C)O)C(C)C)C(=O)N[C@@H](C)C(=O)N[C@@H](C)C(=O)N[C@@H](CCC(N)=O)C(=O)N[C@@H](CC(=O)O)C(=O)N[C@@](C)(Cc1ccccc1)C(=O)N[C@H](C(=O)N[C@@H](CCC(=O)O)C(=O)NC(C)(C)C(=O)N[C@@H](CC(C)C)C(=O)N[C@@H](CCC(=O)O)C(=O)N[C@@H](C)C(=O)NCC(=O)NCC(N)=O)C(C)C)C(=O)O)C(=O)O [Peptide 81] (H-HSQGS[αMeF]TSDVSK[αMeF]LDSK([PEG2-PEG2-γGlu-γGlu-Stearoyl])AAQD[αMeF]VE[Aib]LEAGG-NH2; N-terminus assumed)
6 | 0.00104 | 29.6 | 0.0156 | CCCCCCCCCCCCCCCCCC(=O)N[C@@H](CCC(=O)N[C@@H](CCC(=O)NCCOCCOCCC(=O)NCCOCCOCCC(=O)NCCCC[C@H](NC(=O)[C@H](CO)NC(=O)[C@H](CC(=O)O)NC(=O)[C@H](CC(C)C)NC(=O)[C@](C)(Cc1ccccc1)NC(=O)[C@H](CCCCN)NC(=O)[C@H](CO)NC(=O)[C@@H](NC(=O)[C@H](CC(=O)O)NC(=O)[C@H](CO)NC(=O)[C@@H](NC(=O)[C@](C)(Cc1ccccc1)NC(=O)[C@H](CO)NC(=O)CNC(=O)[C@H](CCC(N)=O)NC(=O)[C@H](CO)NC(=O)[C@@H](N)Cc1c[nH]cn1)[C@@H](C)O)C(C)C)C(=O)N[C@@H](C)C(=O)N[C@@H](C)C(=O)N[C@@H](CCC(N)=O)C(=O)N[C@@H](CC(=O)O)C(=O)N[C@@](C)(Cc1ccccc1)C(=O)N[C@H](C(=O)N[C@@H](CCC(N)=O)C(=O)NC(C)(C)C(=O)N[C@H](C(=O)N[C@H](C(=O)N[C@@H](CC(N)=O)C(=O)N[C@H](C(N)=O)[C@@H](C)O)[C@@H](C)CC)[C@@H](C)CC)C(C)C)C(=O)O)C(=O)O [Peptide 83] (H-HSQGS[αMeF]TSDVSK[αMeF]LDSK([PEG2-PEG2-γGlu-γGlu-Stearoyl])AAQD[αMeF]VQ[Aib]IINT-NH2)
7 | 0.0028 | 31.7 | 0.0449 | CCCCCCCCCCCCCCCCCC(=O)N[C@@H](CCC(=O)N[C@@H](CCC(=O)NCCOCCOCCC(=O)NCCOCCOCCC(=O)NCCCC[C@H](NC(=O)[C@H](CO)NC(=O)[C@H](CC(=O)O)NC(=O)[C@H](CC(C)C)NC(=O)[C@](C)(Cc1ccccc1)NC(=O)[C@H](CCCCN)NC(=O)[C@H](CO)NC(=O)[C@@H](NC(=O)[C@H](CC(=O)O)NC(=O)[C@H](CO)NC(=O)[C@@H](NC(=O)[C@](C)(Cc1ccccc1)NC(=O)[C@H](CO)NC(=O)CNC(=O)[C@H](CCC(N)=O)NC(=O)[C@H](CO)NC(=O)[C@@H](N)Cc1c[nH]cn1)[C@@H](C)O)C(C)C)C(=O)N[C@@H](C)C(=O)N[C@@H](C)C(=O)N[C@@H](CCC(N)=O)C(=O)N[C@@H](CC(=O)O)C(=O)N[C@@](C)(Cc1ccccc1)C(=O)N[C@H](C(=O)N[C@@H](CCC(N)=O)C(=O)NC(C)(C)C(=O)N[C@@H](CC(C)C)C(=O)N[C@@H](CC(C)C)C(=O)N[C@@H](CC(N)=O)C(=O)N[C@H](C(N)=O)[C@@H](C)O)C(C)C)C(=O)O)C(=O)O [Peptide 84] (H-HSQGS[αMeF]TSDVSK[αMeF]LDSK([PEG2-PEG2-γGlu-γGlu-Stearoyl])AAQD[αMeF]VQ[Aib]LLNT-NH2)
